Consider 23 compounds from patent publication US11814445B2, “Cyclic polypeptides for PCSK9 inhibition” (Ra Pharmaceuticals, Inc., priority 2018, dated 2023).

Numbered stars: 1 amine (or outer) side, 2 acyl side, 3 side chain; on linkers, the order of the positions; unused ones are H or OH. Bridge positions count the residues as written; N and C are the ends. Square brackets hold non-standard residues; d marks the D form. Peptide text beside a SMILES is read from it. ξ: configuration not given here. Trp(5-F) = N[C@@H](Cc1c[nH]c2ccc(F)cc12)C(=O)O; X8 = O=C(CCCCCSCc1cccc(CSCCN[*:1])c1)[*:2]; X9 = O=C(CCCCCSCc1ccc(CSCCN[*:1])cc1)[*:2]; Phe(4-CN) = N#Cc1ccc(C[C@H](N)C(=O)O)cc1; Phe(4-Cl) = N[C@@H](Cc1ccc(Cl)cc1)C(=O)O; X1 = O=C(CCSCc1cccc(CSCCN[*:1])c1)[*:2]; 1Nal = N[C@@H](Cc1cccc2ccccc12)C(=O)O; 2Nal = N[C@@H](Cc1ccc2ccccc2c1)C(=O)O; Tiq1c(1S) = O=C(O)[C@H]1NCCc2ccccc21; mXylylene = c1cc(C[*:1])cc(C[*:2])c1; NMeY = CN[C@@H](Cc1ccc(O)cc1)C(=O)O; NMeF = CN[C@@H](Cc1ccccc1)C(=O)O; Tic = O=C(O)[C@@H]1Cc2ccccc2CN1; Cha = N[C@@H](CC1CCCCC1)C(=O)O; Tle = CC(C)(C)[C@H](N)C(=O)O; αMeP = C[C@@]1(C(=O)O)CCCN1; Pip = O=C(O)[C@@H]1CCCCN1; Nva = CCC[C@H](N)C(=O)O; Aib = CC(C)(N)C(=O)O; ξP = O=C(O)C1CCCN1; Mpa = O=C(O)CCS

Sequence of human PCSK9 / human LDLR EGFa domain (Q8NBP7 153-692): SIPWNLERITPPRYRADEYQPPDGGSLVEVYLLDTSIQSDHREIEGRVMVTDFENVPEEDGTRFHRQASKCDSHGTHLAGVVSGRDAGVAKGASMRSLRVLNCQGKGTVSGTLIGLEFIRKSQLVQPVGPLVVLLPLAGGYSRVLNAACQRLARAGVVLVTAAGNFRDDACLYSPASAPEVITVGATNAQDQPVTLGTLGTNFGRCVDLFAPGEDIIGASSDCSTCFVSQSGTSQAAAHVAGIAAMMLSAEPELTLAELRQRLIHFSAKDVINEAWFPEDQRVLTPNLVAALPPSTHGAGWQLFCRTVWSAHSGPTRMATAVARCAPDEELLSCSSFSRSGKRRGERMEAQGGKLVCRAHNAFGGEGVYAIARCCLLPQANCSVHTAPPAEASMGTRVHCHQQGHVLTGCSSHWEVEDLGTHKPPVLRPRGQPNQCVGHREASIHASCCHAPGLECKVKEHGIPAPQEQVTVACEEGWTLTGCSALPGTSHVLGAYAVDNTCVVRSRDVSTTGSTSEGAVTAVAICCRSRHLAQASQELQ

The test has as its target human PCSK9 / human LDLR EGFa domain (Homo sapiens, UniProt Q8NBP7). The test is described as follows: TR-FRET assay of inhibition of the PCSK9-LDLR protein-protein interaction. The class given is binding. The following applies: 20 nM human PCSK9, 20 nM human LDLR EGFa domain, 2 hours room temperature. The method, then: A time-resolved fluorescence resonance energy (TR-FRET) assay was used to measure inhibition of the PCSK9-LDLR protein-protein interaction. Briefly, 20 nM avitag-biotinylated human PCSK9 was incubated with 20 nM his-tagged human LDLR EGFa domain in the presence of 5 nM LANCE Ulight Streptavidin (Perkin Elmer) and 5 nM europium-Anti-6×His (Perkin Elmer) for 2 hours covered at room temperature in buffer containing 50 mM HEPES, 150 mM NaCl, 5 mM CaCl2), 0.01% BSA and 0.01% Surfactant P20. Compounds were tested in dose-response and concentrations giving half-maximal inhibition calculated using a 4-parameter fit equation.
(Time-resolved FRET reads energy transfer from a long-lived donor to a nearby acceptor.)
With `C[C@@H]1NC(=O)[C@@H]2CCCN2C(=O)[C@H](Cc2c[nH]c3ccc(F)cc23)NC(=O)[C@H](Cc2c[nH]c3ccc(F)cc23)NC(=O)[C@@H](C)NC(=O)[C@@H]2CCCN2C(=O)CCSCc2cccc(c2)CSCCNC(=O)[C@@H]2CCCN2C(=O)[C@H](Cc2cccc3ccccc23)NC1=O` [Compound 054] (cyclo([1Nal]P[X1]P[dA][Trp(5-F)][Trp(5-F)]PA)), the 50% inhibitory concentration (IC50) (as a rule, the concentration needed to halve the response being measured) was 100 to 1000 nM.
Compound `C[C@@H]1NC(=O)[C@@H]2CCCN2C(=O)[C@H](Cc2c[nH]c3ccc(F)cc23)NC(=O)[C@H](Cc2cccc3ccccc23)NC(=O)[C@@H](C)NC(=O)[C@@H]2CCCN2C(=O)CCSCc2cccc(c2)CSCCNC(=O)[C@@H]2CCCN2C(=O)[C@H](Cc2cccc3ccccc23)NC1=O` [Compound 055] (cyclo([1Nal]P[X1]P[dA][1Nal][Trp(5-F)]PA)) registered an IC50 of 1000 to 12100 nM.
The compound `C[C@@H]1NC(=O)[C@@H]2CCCN2C(=O)[C@H](Cc2c[nH]c3ccc(F)cc23)NC(=O)[C@H](Cc2c[nH]c3ccc(F)cc23)NC(=O)[C@@H](C)NC(=O)[C@@H]2CCCN2C(=O)CCSCc2cccc(c2)CSCCNC(=O)[C@@H]2CCCN2C(=O)[C@H](Cc2ccccc2)NC1=O` [Compound 057] (cyclo(AFP[X1]P[dA][Trp(5-F)][Trp(5-F)]P)) yielded an IC50 of 100 to 1000 nM.
Turning to `C[C@@H]1NC(=O)CCSCc2cccc(c2)CSCCNC(=O)[C@@H]2CCCN2C(=O)[C@H](Cc2ccc(O)cc2)NC(=O)[C@H](C)NC(=O)[C@@H]2CCCN2C(=O)[C@H](Cc2c[nH]c3ccc(F)cc23)NC(=O)[C@H](Cc2c[nH]c3ccc(F)cc23)NC(=O)[C@@H](C)NC1=O` [Compound 058] (cyclo(AYP[X1]A[dA][Trp(5-F)][Trp(5-F)]P)), the half-maximal inhibitory concentration (IC50) was in the range of 21000 to 50000 nM.
In turn, `C[C@@H]1NC(=O)CCSCc2cccc(c2)CSCCNC(=O)[C@@H]2CCCN2C(=O)[C@H](Cc2cccc3ccccc23)NC(=O)[C@H](C)NC(=O)[C@@H]2CCCN2C(=O)[C@H](Cc2c[nH]c3ccc(F)cc23)NC(=O)[C@H](Cc2c[nH]c3ccc(F)cc23)NC(=O)[C@@H](C)NC1=O` [Compound 065] (cyclo([1Nal]P[X1]A[dA][Trp(5-F)][Trp(5-F)]PA)) showed a 50% inhibitory concentration (IC50) of 21000 to 50000 nM.
The compound `C[C@@H]1NC(=O)CCSCc2cccc(c2)CSCCNC(=O)[C@@H]2CCCN2C(=O)[C@H](Cc2ccccc2)N(C)C(=O)[C@H](C)NC(=O)[C@@H]2CCCN2C(=O)[C@H](Cc2c[nH]c3ccc(F)cc23)NC(=O)[C@H](Cc2cccc3ccccc23)NC(=O)[C@@H](C)NC1=O` [Compound 067] (cyclo([1Nal][Trp(5-F)]PA[NMeF]P[X1]A[dA])) showed an IC50 of 1000 to 12100 nM.
Next, `C[C@@H]1NC(=O)CCSCc2cccc(c2)CSCCNC(=O)[C@@H]2CCCN2C(=O)[C@H](Cc2ccc3ccccc3c2)NC(=O)[C@H](C)NC(=O)[C@@H]2CCCN2C(=O)[C@H](Cc2c[nH]c3ccc(F)cc23)NC(=O)[C@H](Cc2cccc3ccccc23)NC(=O)[C@@H](C)NC1=O` [Compound 079] (cyclo([1Nal][Trp(5-F)]PA[2Nal]P[X1]A[dA])): 100 to 1000 nM.
Next, `C[C@@H]1NC(=O)CCSCc2cccc(c2)CSCCNC(=O)[C@@H]2CCCN2C(=O)[C@H](Cc2cccc3ccccc23)NC(=O)[C@H](C)NC(=O)[C@@H]2CCCN2C(=O)[C@H](Cc2c[nH]c3ccc(F)cc23)NC(=O)[C@H](Cc2cccc3ccccc23)NC(=O)[C@@H](C)NC1=O` [Compound 080] (cyclo([1Nal]P[X1]A[dA][1Nal][Trp(5-F)]PA)): 1000 to 12100 nM; `C[C@@H]1NC(=O)CCSCc2cccc(c2)CSC[C@@H](C(N)=O)NC(=O)[C@@H]2CCCN2C(=O)[C@H](Cc2ccc(C#N)cc2)NC(=O)[C@H](C)NC(=O)[C@@H]2CCCN2C(=O)[C@H](Cc2c[nH]c3ccc(F)cc23)NC(=O)[C@H](Cc2c[nH]c3ccc(F)cc23)NC(=O)[C@@H](C)NC1=O` [Compound 081] ([Mpa]A[dA][Trp(5-F)][Trp(5-F)]PA[Phe(4-CN)]PC-NH2; linker 1-10 via mXylylene): 1000 to 12100 nM; `C[C@@H]1NC(=O)CCSCc2cccc(c2)CSC[C@@H](C(N)=O)NC(=O)[C@@H]2CCCN2C(=O)[C@H](Cc2ccc(Cl)cc2)NC(=O)[C@H](C)NC(=O)[C@@H]2CCCN2C(=O)[C@H](Cc2c[nH]c3ccc(F)cc23)NC(=O)[C@H](Cc2c[nH]c3ccc(F)cc23)NC(=O)[C@@H](C)NC1=O` [Compound 083] ([Mpa]A[dA][Trp(5-F)][Trp(5-F)]PA[Phe(4-Cl)]PC-NH2; linker 1-10 via mXylylene): 21000 to 50000 nM.
With `C[C@@H]1NC(=O)CCSCc2cccc(c2)CSCCNC(=O)[C@@H]2CCCN2C(=O)[C@H](Cc2ccccc2)N(C)C(=O)[C@H](C)NC(=O)[C@@H]2CCCCN2C(=O)[C@H](Cc2c[nH]c3ccc(F)cc23)NC(=O)[C@H](Cc2c[nH]c3ccc(F)cc23)NC(=O)[C@@H](C)NC1=O` [Compound 088] (cyclo(A[NMeF]P[X1]A[dA][Trp(5-F)][Trp(5-F)][Pip])) the figure was 21000 to 50000 nM.
In the case of `C[C@@H]1NC(=O)CCSCc2cccc(c2)CSCCNC(=O)[C@@H]2CCCN2C(=O)[C@H](Cc2ccc(O)cc2)NC(=O)[C@H](C)NC(=O)[C@@H]2Cc3ccccc3CN2C(=O)[C@H](Cc2c[nH]c3ccc(F)cc23)NC(=O)[C@H](Cc2c[nH]c3ccc(F)cc23)NC(=O)[C@@H](C)NC1=O` [Compound 091] (cyclo(AYP[X1]A[dA][Trp(5-F)][Trp(5-F)][Tic])), the half-inhibitory concentration (IC50) was 100 to 1000 nM.
Next, `C[C@@H]1NC(=O)CCSCc2cccc(c2)CSCCNC(=O)[C@@H]2CCCN2C(=O)[C@H](Cc2ccc(O)cc2)NC(=O)[C@H](C)NC(=O)[C@@H]2c3ccccc3CCN2C(=O)[C@H](Cc2c[nH]c3ccc(F)cc23)NC(=O)[C@H](Cc2c[nH]c3ccccc23)NC(=O)[C@@H](C)NC1=O` [Compound 092] (cyclo(AYP[X1]A[dA]W[Trp(5-F)][Tiq1c(1S)])): 21000 to 50000 nM; `CCC[C@@H]1NC(=O)CCSCc2cccc(c2)CSCCNC(=O)[C@@H]2CCCN2C(=O)[C@H](Cc2ccc(O)cc2)NC(=O)[C@H](C)NC(=O)[C@@H]2CCCN2C(=O)[C@H](Cc2c[nH]c3ccc(F)cc23)NC(=O)[C@H](Cc2c[nH]c3ccc(F)cc23)NC(=O)[C@@H](C)NC1=O` [Compound 093] (cyclo(AYP[X1][Nva][dA][Trp(5-F)][Trp(5-F)]P)): 1000 to 12100 nM.
In turn, `C[C@@H]1NC(=O)[C@@H]2CCCN2C(=O)[C@H](Cc2c[nH]c3ccc(F)cc23)NC(=O)[C@H](Cc2c[nH]c3ccc(F)cc23)NC(=O)[C@@H](C)NC(=O)C(C)(C)NC(=O)CCSCc2cccc(c2)CSCCNC(=O)[C@@H]2CCCN2C(=O)[C@H](Cc2ccc(O)cc2)NC1=O` [Compound 094] (cyclo(AYP[X1][Aib][dA][Trp(5-F)][Trp(5-F)]P)) showed an IC50 of 100 to 1000 nM.
With `C[C@@H]1NC(=O)[C@@H]2CCCN2C(=O)[C@H](Cc2c[nH]c3ccc(F)cc23)NC(=O)[C@H](Cc2c[nH]c3ccc(F)cc23)NC(=O)[C@@H](C)NC(=O)[C@H](C(C)(C)C)NC(=O)CCSCc2cccc(c2)CSCCNC(=O)[C@@H]2CCCN2C(=O)[C@H](Cc2ccc(O)cc2)NC1=O` [Compound 095] (cyclo(AYP[X1][Tle][dA][Trp(5-F)][Trp(5-F)]P)) the figure was 100 to 1000 nM; with `C[C@@H]1NC(=O)[C@@H]2CCCN2C(=O)[C@H](Cc2c[nH]c3ccc(F)cc23)NC(=O)[C@H](Cc2c[nH]c3ccc(F)cc23)NC(=O)CNC(=O)CCCCCSCc2cccc(c2)CSCCNC(=O)C2CCCN2C(=O)[C@H](Cc2ccc(O)cc2)NC1=O` (some centres unmarked) [Compound 098] (cyclo(AY[ξP][X8]G[Trp(5-F)][Trp(5-F)]P)), 100 to 1000 nM.
With `C[C@@H]1NC(=O)[C@@H]2CCCN2C(=O)[C@H](Cc2c[nH]c3ccc(F)cc23)NC(=O)[C@H](Cc2c[nH]c3ccc(F)cc23)NC(=O)CNC(=O)CCCCCSCc2ccc(cc2)CSCCNC(=O)C2CCCN2C(=O)[C@H](Cc2ccc(O)cc2)NC1=O` (some centres unmarked) [Compound 099] (cyclo(AY[ξP][X9]G[Trp(5-F)][Trp(5-F)]P)) the figure was 1000 to 12100 nM; with `C[C@@]12CCCN1C(=O)[C@H](Cc1ccc(O)cc1)NC(=O)[C@H](Cc1cnc[nH]1)NC(=O)[C@@H]1CCCN1C(=O)[C@H](Cc1c[nH]c3ccc(F)cc13)NC(=O)[C@H](CC1CCCCC1)NC(=O)CNC(=O)[C@H](CCCCN)NC(=O)CCSCc1cccc(c1)CSCCNC2=O` [Compound 104] (cyclo([Cha][Trp(5-F)]PHY[αMeP][X1]KG)), 1000 to 12100 nM; with `C[C@@H](O)[C@@H]1NC(=O)CNC(=O)[C@H](CCCCN)NC(=O)CCSCc2cccc(c2)CSCCNC(=O)[C@]2(C)CCCN2C(=O)[C@H](Cc2ccc(O)cc2)NC(=O)[C@H](Cc2cnc[nH]2)NC(=O)[C@@H]2CCCN2C(=O)[C@H](Cc2c[nH]c3ccc(F)cc23)NC1=O` [Compound 105] (cyclo(GT[Trp(5-F)]PHY[αMeP][X1]K)), 100 to 1000 nM.
Next, `CN1C(=O)[C@H](Cc2cnc[nH]2)NC(=O)[C@@H]2CCCN2C(=O)[C@H](Cc2c[nH]c3ccc(F)cc23)NC(=O)[C@H](CC2CCCCC2)NC(=O)CNC(=O)[C@H](CCCCN)NC(=O)CCSCc2cccc(c2)CSCCNC(=O)[C@]2(C)CCCN2C(=O)[C@@H]1Cc1ccc(O)cc1` [Compound 106] (cyclo([Cha][Trp(5-F)]PH[NMeY][αMeP][X1]KG)): 100 to 1000 nM.
`CN1C(=O)[C@H](Cc2cnc[nH]2)NC(=O)C(C)(C)NC(=O)[C@H](Cc2c[nH]c3ccc(F)cc23)NC(=O)[C@H](Cc2c[nH]c3ccc(F)cc23)NC(=O)CNC(=O)[C@H](CCCCN)NC(=O)CCSCc2cccc(c2)CSCCNC(=O)[C@]2(C)CCCN2C(=O)[C@@H]1Cc1ccc(O)cc1` [Compound 111] (cyclo([Aib]H[NMeY][αMeP][X1]KG[Trp(5-F)][Trp(5-F)])) registered an IC50 of 1000 to 12100 nM.
Next, `C[C@@H]1NC(=O)CNC(=O)[C@H](CCCCN)NC(=O)CCSCc2cccc(c2)CSC[C@@H](C(N)=O)NC(=O)[C@@H]2CCCN2C(=O)[C@H](Cc2ccc(O)cc2)NC(=O)[C@H](Cc2cnc[nH]2)NC(=O)[C@H](CC(=O)O)NC(=O)[C@H](Cc2c[nH]c3ccc(F)cc23)NC1=O` [Compound 112] ([Mpa]KGA[Trp(5-F)]DHYPC-NH2; linker 1-10 via mXylylene): 100 to 1000 nM.
